A short description of data set [1]: Cytotoxicity on human endothelial cells. The settings on record: human; EAhy926, measured after 72 hours; read-out: IC50, cytotoxic activity on EAhy926 (FIG. 4 legend). In kind it is cell-based. Here is the method:
(§1) Cytotoxicity of compound (I-1) towards human endothelial cells (EAhy926) was evaluated after 1 hour, 3 hours and 6 hours of treatment. The number of living cells was either counted immediately at the end of the treatment (FIG. 3) or 72 hours after stopping the treatment (FIG. 4). It is observed that when the endothelial cells are treated for 72 hours with the compound (I-1), the IC50 is 2 nM.
(§2) The EAhy926 cells (immortalized HUVEC macrovascular endothelial cells) were cultivated in a culture medium “Dulbecco minimal essential medium” (DMEM) containing 4.5 g/L of glucose and supplemented with 10% fetal calf serum, 1% glutamine and a supplement of HAT (100 μM of hypoxanthine, 0.4 μM of aminopterin and 16 μM of thymidine, Invitrogen; Cergy-Pontoise, France). The cells were maintained in the culture at 37° C. in a humid atmosphere containing 5% CO2.
(§3) The cells were sown in 96-well culture plates in an amount of 3,000 cells per well in 50 μL of culture medium. […] At the end of the treatment, the number of cells was evaluated by using the reagent “CellTiter-Blue™” (Promega, Wis., USA) as described earlier. In parallel, after 1 hour, 3 hours or 6 hours of treatment with compound (I-1), the culture medium was removed and replaced with fresh medium for 72 hours and the number of living cells was then measured by using the reagent “CellTiter-Blue™”.

Data set [2] deals with human endothelial cells (EAhy926). Kind of data set: Cytotoxicity on human endothelial cells. Type of data set: cell-based. The settings on record: EAhy926, 1 hour, 3 hours or 6 hours of treatment, dose of 10 nM. Here is the method: as §1, §2, §3

A word on the IC50: it is the concentration that inhibits the measured activity by half.

Turning to `C=C(c1ccc(OC)c(O)c1)c1cc(OC)c(OC)c(OC)c1` [(I-1)], the IC50 at 72 h in data set [1] is 2 nM. The “Cytotoxic activity on endothelial cells, short treatment” value in data set [2] is listed as “does not exhibit any cytotoxic activity”.

The values above are taken from patent US8273768B2, “Iso CA-4 and analogues thereof as potent cytotoxic agents inhibiting tubuline polymerization” (Centre National de la Recherche Scientifique (CNRS), priority 2007, dated 2012).
